Assay results taken from publication PMC11783601, “Analogue-Sensitive Inhibition of Histone Demethylases Uncovers Member-Specific Function in Ribosomal Protein Synthesis” (Journal of the American Chemical Society, 2025).
Entries after “also recorded” stand apart in the source; their conditions may differ.

Key:
HEK293T cells = assay: Cell permeability and hydrolysis to 6, LC-HRMS of cell extracts; format: in vitro ADME, human; details: 200 µM, 24 hours, LC-HRMS total ion counts
From the text: We next examined the orthogonal pairs for their ability to modulate lysine demethylation on the chromosomal histone in cultured human cells (Figure 4A). To this end, we generated the F185A mutation in full-length KDM4A carrying all of the functional domains. Furthermore, to enhance cell permeability, we synthesized two chemoselective ester prodrugs 6A and 6B carrying either an n-octyl or a trifluoromethyl benzyl ester as the lipophilic moiety, respectively (Figures 4A, S5, and S6, Scheme S3).[46],[47] We confirmed the cell permeability of 6A and 6B and their subsequent hydrolysis to 6 by analyzing extracts of compound-treated HEK293T cells using LC-HRMS. […]
12. Examining cell permeability and toxicity of 6A and 6B
In a T-25 cell culture flask, HEK293T cells were treated with either 200 µM L-Leu octyl-ester NOG 6A, L-Leu TFMB-ester NOG 6B, or corresponding volume of DMSO. Following 24 hours of incubation at 37 °C, media was removed and 3mL of 80:20 methanol: water was added while the flasks with cells were on dry ice. The flasks were then incubated in -80 °C for 10 minutes to allow cell lysis. […] Relative de-esterification was determined by subtracting abundance of each treatment sample by the DMSO control and indicated molecular weights followed by dividing the abundance of L-Leu NOG molecular weight by the total abundance of esterified and de-esterified L-Leu 6 for each sample. […]

[1] = test system: rRNA transcription in HEK293T cells; assay: Fixed cell immunofluorescence staining for H3K9me3 and 5FU (BrdU antibody) incorporation into rRNA; format: cell-based, human
Experimental: Upregulation of protein synthesis is linked to enhanced ribosomal biogenesis driven by the expression and coordinated assembly of the ribosomal RNAs (rRNAs). To systematically investigate the role of KDM4A in rRNA activation, HEK293T cells expressing wild type KDM4A or asKDM4A were briefly (∼15 min) exposed to 5-fluorouridine (5FU), a uridine analogue known to rapidly incorporate into nascent RNAs, in the presence of cell-permeable n-octyl IOX1 or NOL derivative 6B, respectively (Figure 6A). Given that there are about 350 copies of rDNA in the human genome, brief exposure to 5FU ensures the labeling of rRNAs primarily.[49][52] The cells were then fixed and stained with H3K9me3 antibody, along with BrdU antibody which recognizes 5FU, to examine any correlation between histone demethylation and rRNA expression using high-resolution immunofluorescence imaging. Both wild type KDM4A and F185A mutant led to robust increase in 5FU incorporated rRNA levels, while reduction in H3K9me3 signals was observed (Figures 6B,C and S36). […]
19. Fixed cell immunofluorescence staining
Cells were grown on poly-D-lysine (Gibco A3890401) treated glass coverslips (ThermoScientific 12-545-81P) overnight and transfected the next day with 300 ng KDM4A WT/F185A using […] of lipofectamine 2000 (Invitrogen 11668019). The cells were incubated overnight and treated with indicated inhibitor at varying time points. When probing rRNA transcription, cells were incubated with 2 mM 5-Fluorouridine (Sigma F5130) for 15 minutes. […]
20. Quantification of fixed-cell imaging data
TIF images obtained from confocal microscopy experiments were quantified in ImageJ. […]
The mean fluorescent signal was then measured. […]
For the time dependent imaging, cells containing the transfected KDM4A mutant were identified by their HA signal. […] The mean signal was then measured for H3K9me3 or BrdU only within the cells expressing the KDM4A mutant. To compare changes in H3K9me3 or BrdU between trials, the quantification values were normalized to the mean signal at t=0. […]

Row | SMILES | membrane permeability and hydrolysis to 6 (HEK293T cells) | 5FU incorporation into rRNA ([1]; HEK293T cells expressing F185A) | H3K9me3 levels ([1]; HEK293T cells expressing F185A) | histone demethylation and 5FU incorporation ([1]; HEK293T cells overexpressing wild type KDM4A, 10 µM n-octyl IOX1)
1 | CCCCCCCCOC(=O)C(=O)NC(CC(C)C)C(=O)O [6A, L-Leu octyl-ester NOG] | comparable membrane permeability | – | – | –
2 | CC(C)CC(NC(=O)C(=O)OCc1cccc(C(F)(F)F)c1)C(=O)O [6B, L-Leu TFMB-ester NOG] | comparable membrane permeability | attenuated 5FU incorporation in a dose–response manner | re-emergence of H3K9me3 levels | –
3 | CCCCCCCCOC(=O)c1ccc(O)c2ncccc12 [n-octyl IOX1] | – | – | – | inhibited; also recorded: repressed histone demethylation and 5FU incorporation
